# From patent US5079241A, “Cephalosporin derivatives and pharmaceutical compositions in which they are present” (Sanofi, priority 1987, dated 1992)
# Read-outs that look alike come from different tables or passages of the source.
# Tests used:
# [1] = test system: Escherichia coli C1/Col E1::Tn3; experiment: bacteriostatic action in vitro by the dilution method (MIC); type: cell-based; conditions: read-out: minimum inhibitory concentrations (MIC)
# Experimental: (§1) The bacteriostatic action was determined in vitro by the dilution method. The study was carried out on both Gram-positive strains and Gram-negative strains.
# (§2) The results for various products according to the invention, expressed as minimum inhibitory concentrations (MIC - μg/ml), are collated in Table 3.
# [2] = test system: Escherichia coli SOL RL 90; experiment: as above; type: cell-based; conditions: SOLRL90, read-out: minimum inhibitory concentrations (MIC)
# Experimental: as §1, §2
# [3] = test system: Klebsiella pneumoniae R30; experiment: as above; type: cell-based; conditions: read-out: minimum inhibitory concentrations (MIC)
# Experimental: as §1, §2
# [4] = test system: Proteus vulgaris GN 76/C-1; experiment: as above; type: cell-based; conditions: GN76, read-out: minimum inhibitory concentrations (MIC)
# Experimental: as §1, §2
# Providencia 155 = experiment: as above; type: cell-based; conditions: read-out: minimum inhibitory concentrations (MIC)
# Experimental: as §1, §2
# [5] = test system: Pseudomonas aeruginosa NCTC 8203; experiment: as above; type: cell-based; conditions: NCTC8203, read-out: minimum inhibitory concentrations (MIC)
# Experimental: as §1, §2
# Staph. aureus Smith = experiment: as above; type: cell-based; conditions: Staphylococcus aureus, read-out: minimum inhibitory concentrations (MIC)
# Experimental: as §1, §2
# [6] = pharmacokinetic behavior in baboons, 20 mg/kg (Tables 4 and 6); type: in vivo; conditions: baboon; for Tmax / Cmax / AUC(0-t) at 6 h / concentration at 6 h / concentration at 10 min / concentration at 20 min / concentration at 0.5 h / concentration at 0.75 h / concentration at 1 h / concentration at 1.5 h / concentration at 2 h / concentration at 3 h / concentration at 4 h / concentration at 5 h / concentration at 5.5 h: plasma; for Cmax: read-out: Max plasma concentration; for AUC(0-t) at 6 h: trapezium method; for concentration at 6 h / concentration at 10 min / concentration at 20 min / concentration at 0.5 h / concentration at 0.75 h / concentration at 1 h / concentration at 1.5 h / concentration at 2 h / concentration at 3 h / concentration at 4 h / concentration at 5 h / concentration at 5.5 h / dose excreted at 6 h: 20 mg/kg; for concentration at 0.5 h: 30 minutes; for concentration at 0.75 h: 45 minutes; for concentration at 1 h: 60 minutes; for concentration at 1.5 h: 90 minutes; for concentration at 2 h: 120 minutes; for concentration at 3 h: 180 minutes; for concentration at 4 h: 240 minutes; for concentration at 5 h: 300 minutes; for concentration at 5.5 h: 330 minutes; for dose excreted at 6 h: urine, 6 h (Table 6), read-out: Excretion in the urine
# Experimental: Furthermore, the pharmacokinetic behavior of the products according to the invention was studied in baboons after administration at a dose of 20 mg/kg by intramuscular injection or intravenous injection.
# Blood samples taken at various times after administration are used to determine the plasma concentration of the product studied by microbiological assay.
# It is thus possible to construct the curve showing the plasma concentration as a function of time, and to determine different pharmacokinetic parameters of the compound studied:
# the elimination half-life (t1/2 β) is calculated by the formula [formula] in which β represents the elimination gradient or slope;
# the area under the curve (AUC) is determined by the trapezium method.
# The plasma concentrations obtained with various products of the invention are collated in Tables 4 and 5. They are expressed in μg/ml.
# [7] = protein binding by comparing two standard scales in baboon plasma and phosphate buffer; type: in vitro ADME; conditions: baboon plasma vs phosphate buffer (pH 7, 0.03M)
# From the text: Furthermore, the protein binding is obtained by comparing two standard scales, one being prepared in baboon plasma and the other in phosphate buffer (pH 7, 0.03M).
# [8] = 20 mg/kg (Table 6), read-out: Plasma concentration at 6 h
# [9] = 360 minutes, read-out: plasma concentration
smiles,measurement,setting,value
"CC(C)(O/N=C(\C(=O)NC1C(=O)N2C(C(=O)O)=C(COC(=O)c3ccc(NC(=O)CN)c(O)c3)CSC12)c1csc(N)n1)C(=O)O (stereo not drawn) [SR 43753, Bis-trifluoroacetate of 7-2-(2-aminothiazol-4-yl)-2-(2-carboxyprop-2-yloxyimino)acetamido]-3-[[4-(2-aminoacetyl)amino-3-hydroxybenzoyloxymethyl]-3-cephem-4-carboxylic acid, syn isomer]",MIC,[1],0.12 µg/mL
same,MIC,[2],2 µg/mL
same,MIC,[3],1 µg/mL
same,MIC,[4],0.12 µg/mL
same,MIC,Providencia 155,1 µg/mL
same,MIC,[5],2 µg/mL
same,MIC,Staph. aureus Smith,2 µg/mL
same,Tmax,[6]; 20 mg/kg (Table 6),2 h
same,Cmax,[6]; 20 mg/kg (Table 6),151 µg/mL
same,AUC(0-t) at 6 h,[6]; 20 mg/kg (Table 6),703 µg·h/mL
same,concentration at 6 h,[6]; [8],80.9 µg/mL
same,concentration at 10 min,[6],36.8 µg/mL
same,concentration at 20 min,[6],69.1 µg/mL
same,concentration at 0.5 h,[6],95.2 µg/mL
same,concentration at 0.75 h,[6],129 µg/mL
same,concentration at 1 h,[6],139 µg/mL
same,concentration at 1.5 h,[6],146 µg/mL
same,concentration at 2 h,[6],151 µg/mL
same,concentration at 3 h,[6],126 µg/mL
same,concentration at 4 h,[6],121 µg/mL
same,concentration at 5 h,[6],113 µg/mL
same,concentration at 5.5 h,[6],97.6 µg/mL
same,concentration at 6 h,[6]; [9],80.9 µg/mL
same,dose excreted at 6 h,[6],18%
same,fraction unbound,[7],0.16
CC(C)(O/N=C(\C(=O)NC1C(=O)N2C(C(=O)O)=C(COC(=O)c3ccc(NC(=O)C(N)CCN)c(O)c3)CSC12)c1csc(N)n1)C(=O)O (centres unmarked) [SR 44130],MIC,[1],0.25 µg/mL
same,MIC,[2],2 µg/mL
same,MIC,[3],1 µg/mL
same,MIC,[4],0.12 µg/mL
same,MIC,Providencia 155,1 µg/mL
same,MIC,[5],2 µg/mL
same,MIC,Staph. aureus Smith,8 µg/mL
same,Tmax,[6]; 20 mg/kg (Table 6),1.5 h
same,Cmax,[6]; 20 mg/kg (Table 6),143 µg/mL
same,AUC(0-t) at 6 h,[6]; 20 mg/kg (Table 6),707 µg·h/mL
same,concentration at 6 h,[6]; [8],90.4 µg/mL
same,concentration at 10 min,[6],39.1 µg/mL
same,concentration at 20 min,[6],60.9 µg/mL
same,concentration at 0.5 h,[6],81.9 µg/mL
same,concentration at 0.75 h,[6],105 µg/mL
same,concentration at 1 h,[6],122 µg/mL
same,concentration at 1.5 h,[6],143 µg/mL
same,concentration at 2 h,[6],142 µg/mL
same,concentration at 3 h,[6],138 µg/mL
same,concentration at 4 h,[6],135 µg/mL
same,concentration at 5 h,[6],109 µg/mL
same,concentration at 5.5 h,[6],93.8 µg/mL
same,concentration at 6 h,[6]; [9],90.4 µg/mL
same,dose excreted at 6 h,[6],37%
same,fraction unbound,[7],0.08
